Results on 54 compounds are retold here after patent publication US8541363B2, “Pyruvamide compounds as inhibitors of dust mite group 1 peptidase allergen and their use” (St George's Hosptial Medical School, priority 2010, dated 2013).

In the assay the target is Der p 1 (Dermatophagoides pteronyssinus (European house dust mite), UniProt P08176). The assay can be described thus: Der p 1 enzyme activity assay (FRET fluorogenic substrate). The assay is classed as biochemical. The conditions noted are these: threshold stated in text; read-out: Der p 1 IC50.
Der p 1, sequence (P08176 99-320): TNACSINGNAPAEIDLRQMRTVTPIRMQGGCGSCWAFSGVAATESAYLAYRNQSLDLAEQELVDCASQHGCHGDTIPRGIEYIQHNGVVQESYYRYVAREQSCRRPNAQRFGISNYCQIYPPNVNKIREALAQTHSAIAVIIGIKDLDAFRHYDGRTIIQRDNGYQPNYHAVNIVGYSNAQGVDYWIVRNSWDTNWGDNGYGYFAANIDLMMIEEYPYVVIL
Regarding `Cc1ccccc1C[C@H](NC(=O)c1ccncc1)C(=O)N[C@@H](C)C(=O)N[C@H](C(=O)C(=O)NCc1ccccc1)C(C)C` [PVA-151], the IC50 is less than 20 nM.

For the compound `CC(C)[C@H](NC(=O)[C@H](C)NC(=O)[C@H](Cc1ccccc1C(F)(F)F)NC(=O)c1ccncc1)C(=O)C(=O)NCc1ccccc1` [PVA-152], the IC50 is less than 200 nM.

For the compound `CC(C)[C@H](NC(=O)[C@H](C)NC(=O)[C@@H](NC(=O)C1CC[N+](C)(C)CC1)C(C)(C)C)C(=O)C(=O)NC1CCCCC1` [PVA-153], the IC50 is less than 20 nM.

For `CC(C)[C@H](NC(=O)[C@H](C)NC(=O)[C@@H](NC(=O)c1ccccc1)C(C)(C)C)C(=O)C(=O)NCc1cccc(C(N)=O)c1` [PVA-155], the IC50 is less than 20 nM.

As for `CC(C)[C@H](NC(=O)[C@H](C)NC(=O)[C@@H](NC(=O)c1ccnc2ccccc12)C(C)(C)C)C(=O)C(N)=O` [PVA-156], the IC50 was less than 20 nM.

Take `CC(C)[C@H](NC(=O)[C@H](C)NC(=O)[C@@H](NC(=O)c1cccc2nc[nH]c12)C(C)(C)C)C(=O)C(=O)NCc1ccccc1` [PVA-157]: the IC50 was less than 20 nM.

For `CC(C)[C@H](NC(=O)[C@H](C)NC(=O)[C@@H](NC(=O)c1ccccc1)C(C)(C)C)C(=O)C(=O)NCc1cn[nH]c1` [PVA-158], the IC50 was less than 20 nM.

Consider `COc1ccc(CNC(=O)C(=O)[C@@H](NC(=O)[C@H](C)NC(=O)[C@H](Cc2ccccc2)NC(=O)c2ccncc2)C(C)C)cc1` [PVA-159], for which the IC50 is less than 200 nM.

For `COc1cccc(CNC(=O)C(=O)[C@@H](NC(=O)[C@H](C)NC(=O)[C@H](Cc2ccccc2)NC(=O)c2ccncc2)C(C)C)c1` [PVA-160], the IC50 was less than 200 nM.

Regarding `CC(C)[C@H](NC(=O)[C@H](C)NC(=O)[C@H](Cc1ccccc1)NC(=O)c1ccncc1)C(=O)C(=O)NCc1ccc(S(N)(=O)=O)cc1` [PVA-161], the IC50 was less than 20 nM.

`CC(C)[C@H](NC(=O)[C@H](C)NC(=O)[C@@H](NC(=O)c1ccccc1)C(C)(C)C)C(=O)C(=O)NCc1ccc(N2CCN(C)CC2)cc1` [PVA-162]: the IC50 is less than 20 nM.

Take `CC(C)[C@H](NC(=O)[C@H](C)NC(=O)[C@@H](NC(=O)c1ccccc1)C(C)(C)C)C(=O)C(=O)NCC1CCN(C)CC1` [PVA-163]: the IC50 was less than 200 nM.

As to `CC(C)[C@H](NC(=O)[C@H](C)NC(=O)[C@@H](NC(=O)c1ccccc1)C(C)(C)C)C(=O)C(=O)NCc1ccc(CN(C)C)cc1` [PVA-164], the IC50 was less than 20 nM.

`CC(C)[C@H](NC(=O)[C@H](C)NC(=O)[C@@H](NC(=O)c1ccccc1)C(C)(C)C)C(=O)C(=O)NCc1ccc(CN2CCCCC2)cc1` [PVA-165]: the IC50 was less than 200 nM.

Consider `CC(C)[C@H](NC(=O)[C@H](C)NC(=O)[C@@H](NC(=O)c1ccccc1)C(C)(C)C)C(=O)C(=O)NCc1nccn1C` [PVA-166], for which the IC50 was less than 200 nM.

For `CC(C)[C@H](NC(=O)[C@H](C)NC(=O)[C@@H](NC(=O)c1ccccc1)C(C)(C)C)C(=O)C(=O)NCc1ccnn1C` [PVA-167], the IC50 was less than 200 nM.

In the case of `Cc1cc(CNC(=O)C(=O)[C@@H](NC(=O)[C@H](C)NC(=O)[C@@H](NC(=O)c2ccccc2)C(C)(C)C)C(C)C)n(C)n1` [PVA-168], the IC50 was less than 200 nM.

Regarding `CC(C)[C@H](NC(=O)[C@H](C)NC(=O)[C@H](Cc1ccccc1)NC(=O)c1ccncc1)C(=O)C(=O)NCc1cccc(C(N)=O)c1` [PVA-169], the IC50 was less than 20 nM.

`CC(C)[C@H](NC(=O)[C@H](C)NC(=O)[C@H](Cc1ccccc1)NC(=O)c1ccncc1)C(=O)C(=O)NCC1CCN(C)CC1` [PVA-170]: the IC50 was less than 200 nM.

In the case of `CC(C)[C@H](NC(=O)[C@H](C)NC(=O)[C@H](Cc1ccccc1)NC(=O)c1ccncc1)C(=O)C(=O)NCc1cccc(S(N)(=O)=O)c1` [PVA-171], the IC50 is less than 200 nM.

As to `CC(C)[C@H](NC(=O)[C@H](C)NC(=O)[C@@H](NC(=O)C1CCN(C(C)C)CC1)C(C)(C)C)C(=O)C(=O)NCc1ccccc1` [PVA-172], the IC50 is less than 200 nM.

Regarding `CC(C)[C@H](NC(=O)[C@H](C)NC(=O)[C@@H](NC(=O)c1cccc(N2CCN(C)CC2)c1)C(C)(C)C)C(=O)C(=O)NCc1ccccc1` [PVA-173], the IC50 was less than 200 nM.

Regarding `CC(C)[C@H](NC(=O)[C@H](C)NC(=O)[C@H](Cc1ccccc1)NC(=O)c1ccncc1)C(=O)C(=O)NC1CCC1` [PVA-174], the IC50 is less than 200 nM.

In the case of `CC(C)[C@H](NC(=O)[C@H](C)NC(=O)[C@H](Cc1ccccc1)NC(=O)c1ccncc1)C(=O)C(=O)NC1CCCC1` [PVA-175], the IC50 is less than 200 nM.

Consider `CC(C)[C@H](NC(=O)[C@H](C)NC(=O)[C@@H](NC(=O)c1ccc(N2CCN(C)CC2)cc1)C(C)(C)C)C(=O)C(=O)NCc1ccccc1` [PVA-176], for which the IC50 is less than 200 nM.

As for `CC(C)[C@H](NC(=O)[C@H](C)NC(=O)[C@@H](N1Cc2ccccc2C1=O)C(C)(C)C)C(=O)C(=O)NC1CC1` [PVA-177], the IC50 was less than 20 nM.

Regarding `CC(C)[C@H](NC(=O)[C@H](C)NC(=O)[C@@H](NC(=O)c1ccccc1)C(C)(C)C)C(=O)C(=O)NCc1ccc(F)cc1` [PVA-178], the IC50 was less than 20 nM.

`CC(C)[C@H](NC(=O)[C@H](C)NC(=O)[C@@H](NC(=O)c1ccccc1)C(C)(C)C)C(=O)C(=O)NCc1ccc(Cl)cc1` [PVA-179]: the IC50 is less than 200 nM.

On to `CC(C)[C@H](NC(=O)[C@H](C)NC(=O)[C@@H](NC(=O)c1ccccc1)C(C)(C)C)C(=O)C(=O)NCc1ccc(C(C)(C)C)cc1` [PVA-180], for which the IC50 is less than 200 nM.

For the compound `CC(C)[C@H](NC(=O)[C@H](C)NC(=O)[C@@H](NC(=O)c1ccccc1)C(C)(C)C)C(=O)C(=O)NCc1ccc(C(F)(F)F)cc1` [PVA-181], the IC50 was less than 200 nM.

On to `CC(C)[C@H](NC(=O)[C@H](C)NC(=O)[C@@H](NC(=O)c1ccccc1C(F)(F)F)C(C)(C)C)C(=O)C(=O)NCc1ccccc1` [PVA-182], for which the IC50 was less than 20 nM.

`CC(C)[C@H](NC(=O)[C@H](C)NC(=O)[C@@H](NC(=O)c1cccc(Cl)c1)C(C)(C)C)C(=O)C(=O)NCc1ccccc1` [PVA-183]: the half-maximal inhibitory concentration (IC50) was less than 20 nM.

In the case of `CC(C)[C@H](NC(=O)[C@H](C)NC(=O)[C@@H](NC(=O)c1ccc(Cl)cc1)C(C)(C)C)C(=O)C(=O)NCc1ccccc1` [PVA-184], the IC50 is less than 200 nM.

`CC(C)[C@H](NC(=O)[C@H](C)NC(=O)[C@@H](NC(=O)c1ccnc2ccccc12)C(C)(C)C)C(=O)C(=O)NCc1ccc(S(N)(=O)=O)cc1` [PVA-185]: the IC50 was less than 20 nM.

Turning to `CC(C)[C@H](NC(=O)[C@H](C)NC(=O)[C@@H](NC(=O)c1ccnc2ccccc12)C(C)(C)C)C(=O)C(=O)NCC(=O)N1CCc2ccccc2C1` [PVA-186], the IC50 was less than 20 nM.

`CC(C)[C@H](NC(=O)[C@H](C)NC(=O)[C@@H](NC(=O)c1ccnc2ccccc12)C(C)(C)C)C(=O)C(=O)NCC(=O)N1CCN(C(C)C)CC1` [PVA-187]: the IC50 was less than 20 nM.

`CC(C)[C@H](NC(=O)[C@H](C)NC(=O)[C@@H](NC(=O)c1ccnc2ccccc12)C(C)(C)C)C(=O)C(=O)NCc1ccc(C(N)=O)cc1` [PVA-188]: the IC50 was less than 20 nM.

`CC(C)[C@H](NC(=O)[C@H](C)NC(=O)[C@@H](NC(=O)c1ccccc1)C(C)(C)C)C(=O)C(=O)NCc1ccc(OC(F)(F)F)cc1` [PVA-189]: the IC50 was less than 200 nM.

Take `CC(C)[C@H](NC(=O)[C@H](C)NC(=O)[C@@H](NC(=O)c1ccccc1)C(C)(C)C)C(=O)C(=O)NCc1cccc(N2CCN(C)CC2)c1` [PVA-190]: the IC50 is less than 200 nM.

`CC(C)[C@H](NC(=O)[C@H](C)NC(=O)[C@@H](NC(=O)c1ccccc1)C(C)(C)C)C(=O)C(=O)NCc1cccc(Cl)c1` [PVA-191]: the IC50 is less than 200 nM.

Turning to `CC(C)[C@H](NC(=O)[C@H](C)NC(=O)[C@@H](NC(=O)c1ccccc1)C(C)(C)C)C(=O)C(=O)NCc1ccc(C#N)cc1` [PVA-192], the IC50 is less than 20 nM.

Consider `CC(C)[C@H](NC(=O)[C@H](C)NC(=O)[C@@H](NC(=O)c1ccccc1)C(C)(C)C)C(=O)C(=O)NCc1ccccc1Cl` [PVA-193], for which the IC50 is less than 200 nM.

Regarding `CC(C)[C@H](NC(=O)[C@H](C)NC(=O)[C@@H](NC(=O)c1ccccc1)C(C)(C)C)C(=O)C(=O)NCc1ccc(NC(N)=O)cc1` [PVA-194], the IC50 is less than 20 nM.

For the compound `CC(C)[C@H](NC(=O)[C@H](C)NC(=O)[C@@H](NC(=O)c1ccccc1)C(C)(C)C)C(=O)C(=O)NCc1ccc(N2CCN(C)CC2)nc1` [PVA-195], the IC50 is less than 20 nM.

Regarding `CNC(=O)c1ccc(CNC(=O)C(=O)[C@@H](NC(=O)[C@H](C)NC(=O)[C@@H](NC(=O)c2ccccc2)C(C)(C)C)C(C)C)cc1` [PVA-196], the IC50 was less than 20 nM.

Consider `CNS(=O)(=O)c1ccc(CNC(=O)C(=O)[C@@H](NC(=O)[C@H](C)NC(=O)[C@@H](NC(=O)c2ccccc2)C(C)(C)C)C(C)C)cc1` [PVA-197], for which the IC50 was less than 20 nM.

As to `CC(C)[C@H](NC(=O)[C@H](C)NC(=O)[C@H](Cc1ccc(N2CCN(C)CC2)cc1)NC(=O)c1ccccc1)C(=O)C(=O)NCc1ccccc1` [PVA-198], the IC50 was less than 200 nM.

On to `COC(=O)c1cccc(CNC(=O)C(=O)[C@@H](NC(=O)[C@H](C)NC(=O)[C@@H](NC(=O)c2ccccc2)C(C)(C)C)C(C)C)c1` [PVA-199], for which the IC50 is less than 20 nM.

For `CC(C)[C@H](NC(=O)[C@H](C)NC(=O)[C@@H](NC(=O)c1ccccc1)C(C)(C)C)C(=O)C(=O)NCc1cccc(C(=O)OC(C)(C)C)c1` [PVA-200], the IC50 was less than 200 nM.

On to `CC(C)[C@H](NC(=O)[C@H](C)NC(=O)[C@@H](NC(=O)c1ccccc1N1CCN(C)CC1)C(C)(C)C)C(=O)C(=O)NCc1ccccc1` [PVA-201], for which the IC50 is less than 200 nM.

Take `CC(C)[C@H](NC(=O)[C@H](C)NC(=O)[C@@H](NC(=O)c1ccccc1)C(C)(C)C)C(=O)C(=O)NCc1ccc(C(N)=O)cc1` [PVA-202]: the IC50 is less than 20 nM.

In the case of `CC(C)[C@H](NC(=O)[C@H](C)NC(=O)[C@@H](NC(=O)c1ccccc1)C(C)(C)C)C(=O)C(=O)NC1CCC1` [PVA-203], the IC50 is less than 200 nM.

Take `COc1ccc(CNC(=O)C(=O)[C@@H](NC(=O)[C@H](C)NC(=O)[C@@H](NC(=O)c2ccccc2)C(C)(C)C)C(C)C)cc1` [PVA-204]: the IC50 is less than 20 nM.

On to `Cc1ccc(CNC(=O)C(=O)[C@@H](NC(=O)[C@H](C)NC(=O)[C@@H](NC(=O)c2ccccc2)C(C)(C)C)C(C)C)cc1` [PVA-205], for which the half-inhibitory concentration (IC50) is less than 20 nM.

In general, IC50 refers to the concentration needed to halve the response being measured.
